One assay deals with Dopamine D2 receptor (Rattus norvegicus (Rat), UniProt P61169). The experiment in a line: Dopamine D2 receptor binding assay ([3H]-raclopride, rat corpus striatum membrane). Particulars: Ki from IC50 by Cheng-Prussoff formula. As for the experimental part:
Pharmacological Test 1 1) Dopamine D2 Receptor Binding Assay
Wistar male rats were decapitated, the brain was retrieved immediately and corpus striatum was taken out. It was homogenized in 50 mM tris(hydroxymethyl)aminomethane (Tris)-hydrochloric acid buffer (pH 7.4) of a volume 50 times of the weight of the tissue using a homogenizer with a high-speed rotating blade, and centrifuged at 4° C., 48,000×g for 10 minutes. The obtained precipitate was suspended again in the above-described buffer of a volume 50 times of the weight of the tissue and after incubated at 37° C. for 10 minutes, centrifuged in the above-described condition. The obtained precipitate was suspended in 50 mM (Tris)-hydrochloric acid buffer (containing 120 mM NaCl, 5 mM KCl, 2 mM CaCl2, 1 mM MgCl2, pH 7.4) of a volume 25 times of the weight of the tissue and preserved by freezing at −85° C. till it was used for binding assay as a membrane specimen.
The binding assay was performed using 40 μl of the membrane specimen, 20 μl of [^3H]-raclopride (final concentration 1 to 2 nM), 20 μl of a test drug and 50 mM Tris-hydrochloric acid buffer (containing 120 mM NaCl, 5 mM KCl, 2 mM CaCl2, 1 mM MgCl2, pH 7.4) so that the total amount was 200 μl (final dimethylsulfoxide concentration 1%). The reaction was performed at room temperature for 1 hour and terminated by conducting suction filtration with a cell harvester on a glass fiber filter plate. The filter plate made of glass fiber was washed with 50 mM Tris-hydrochloric acid buffer (pH 7.4), and after dried, a microplate liquid scintillation cocktail was added and the radioactivity was measured with a microplate scintillation counter. Radioactivity in the presence of 10 μM (+)-butaclamol hydrochloride was assumed as nonspecific binding.
(§1) IC50 value was calculated from concentration-dependent reaction using a non-linear analysis program. Ki value was calculated from IC50 value using Cheng-Prussoff formula.

Assay [1] addresses Serotonin 5-HT2A receptor (Rattus norvegicus (Rat), UniProt P14842). Put plainly: Serotonin 5-HT2A receptor binding assay ([3H]-Ketanserin, rat frontal cortex membrane). Particulars: Ki from IC50 by Cheng-Prussoff formula. As for the experimental part: 2) Serotonin 5-HT2A Receptor Binding Assay
The assay was performed according to the method by Leysen J E et al. (Leysen J E, Niemegeers C J E, Van Nueten J M and Laduron P M. [3H] Ketanserin (R 41 468), a selective 3H-ligand for serotonin 2 receptor binding sites. Mol. Pharmacol., 1982, 21: 301-314).
Wistar male rats were decapitated, the brain was retrieved immediately and frontal cortex was taken out. It was homogenized in 0.25 M sucrose of a volume 10 times of the weight of the tissue using a Teflon glass homogenizer, and centrifuged at 4° C., 1,000×g for 10 minutes. The obtained supernatant was transferred to another centrifuge tube and suspended in 0.25 M sucrose of a volume 5 times of the weight of the tissue and the precipitate was centrifuged in the above-described condition. The obtained supernatant was combined with the supernatant obtained above and adjusted to a volume 40 times of the weight of the tissue with 50 mM Tris-hydrochloric acid buffer (pH 7.4), and centrifuged at 4° C., 35,000×g for 10 minutes. The obtained precipitate was suspended again in the above-described buffer of a volume 40 times of the weight of the tissue and centrifuged in the above-described condition. The obtained precipitate was suspended in the above-described buffer of a volume 20 times of the weight of the tissue and preserved by freezing at −85° C. till it was used for binding assay as a membrane specimen.
The binding assay was performed using 40 μl of the membrane specimen, 20 μl of [^3H]-Ketanserin (final concentration 1 to 3 nM), 20 μl of a test drug and 50 mM Tris-hydrochloric acid buffer (pH 7.4) so that the total amount was 200 μl (final dimethylsulfoxide concentration 1%). The reaction was performed at 37° C. for 20 minutes and terminated by conducting suction filtration with a cell harvester on a glass fiber filter plate.
The filter plate made of glass fiber was washed with 50 mM Tris-hydrochloric acid buffer (pH 7.4), and after dried, a microplate liquid scintillation cocktail was added and the radioactivity was measured with a microplate scintillation counter. Radioactivity in the presence of 10 μM spiperone was assumed as nonspecific binding.
as §1

A further assay has as its target Serotonin (5-HT) uptake (Rattus norvegicus (Rat), UniProt P31652). Put plainly: Serotonin (5-HT) uptake inhibitory activity by rat brain synaptosome. The format is biochemical. To be noted: test compound 300 nM, rat frontal cortex synaptosome; read-out: Serotonin uptake inhibitory ratio (%) (300 nM). As for the experimental part:
Measurement of Serotonin (5-HT) Uptake Inhibitory Activity of a Test Compound by Rat Brain Synaptosome
Wistar male rats were decapitated, the brain was retrieved and frontal cortex was dissected out, and it was homogenized in 0.32 M sucrose solution of a weight 20 times of the weight of the tissue using a Potter type homogenizer. The homogenate was centrifuged at 4° C., 1,000×g for 10 minutes, the obtained supernatant was further centrifuged at 4° C., 20,000×g for 20 minutes, and the pellet was suspended in an incubation buffer (20 mM Hepes buffer (pH 7.4) containing 10 mM glucose, 145 mM sodium chloride, 4.5 mM potassium Chloride, 1.2 mM magnesium chloride, 1.5 mM calcium chloride), which was used as crude synaptosome fraction.
5-HT uptake reaction was performed in a volume of 200 μl using a 96-well round bottom plate and pargyline (final concentration 10 μM) and sodium ascorbate (final concentration 0.2 mg/ml) were contained in the incubation buffer upon reaction and used.
Incubation buffer (total counting), non-labeled 5-HT (final concentration 10 μM, non-specific counting) and the diluted test compound (final concentration 300 nM) were added to each well. One-tenth quantity of the final volume of the synaptosome fraction was added and after preincubated at 37° C. for 10 minutes, tritium labeled 5-HT solution (final concentration 8 nM) was added and uptake reaction was started at 37° C. The uptake time was 10 minutes and the reaction was terminated by vacuum filtration through a 96-well fiber glass filter paper plate, and after the filter paper was washed with cold normal saline, it was dried enough and Microscint0 (Perkin-Elmer) was added to the filter and remaining radioactivity on the filter was measured.

pKi: −log10 of the molar value. Where a name gives a salt, the structure may show the parent alone.

Serotonin 5-HT2A receptor, sequence (P14842 whole entry): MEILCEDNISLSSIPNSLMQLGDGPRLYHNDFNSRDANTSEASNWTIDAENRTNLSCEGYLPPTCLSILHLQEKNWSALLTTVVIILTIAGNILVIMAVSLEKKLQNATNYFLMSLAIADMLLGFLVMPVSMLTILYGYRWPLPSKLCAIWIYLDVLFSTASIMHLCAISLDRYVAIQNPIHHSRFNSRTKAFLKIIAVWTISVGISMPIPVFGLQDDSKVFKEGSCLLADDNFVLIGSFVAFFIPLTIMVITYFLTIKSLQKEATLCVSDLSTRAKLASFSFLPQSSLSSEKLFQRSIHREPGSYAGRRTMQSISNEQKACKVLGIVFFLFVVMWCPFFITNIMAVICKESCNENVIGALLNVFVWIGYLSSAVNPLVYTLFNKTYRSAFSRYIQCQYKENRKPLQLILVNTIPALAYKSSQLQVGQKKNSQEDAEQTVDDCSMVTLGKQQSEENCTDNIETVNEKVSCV
Serotonin (5-HT) uptake, sequence (P31652 whole entry): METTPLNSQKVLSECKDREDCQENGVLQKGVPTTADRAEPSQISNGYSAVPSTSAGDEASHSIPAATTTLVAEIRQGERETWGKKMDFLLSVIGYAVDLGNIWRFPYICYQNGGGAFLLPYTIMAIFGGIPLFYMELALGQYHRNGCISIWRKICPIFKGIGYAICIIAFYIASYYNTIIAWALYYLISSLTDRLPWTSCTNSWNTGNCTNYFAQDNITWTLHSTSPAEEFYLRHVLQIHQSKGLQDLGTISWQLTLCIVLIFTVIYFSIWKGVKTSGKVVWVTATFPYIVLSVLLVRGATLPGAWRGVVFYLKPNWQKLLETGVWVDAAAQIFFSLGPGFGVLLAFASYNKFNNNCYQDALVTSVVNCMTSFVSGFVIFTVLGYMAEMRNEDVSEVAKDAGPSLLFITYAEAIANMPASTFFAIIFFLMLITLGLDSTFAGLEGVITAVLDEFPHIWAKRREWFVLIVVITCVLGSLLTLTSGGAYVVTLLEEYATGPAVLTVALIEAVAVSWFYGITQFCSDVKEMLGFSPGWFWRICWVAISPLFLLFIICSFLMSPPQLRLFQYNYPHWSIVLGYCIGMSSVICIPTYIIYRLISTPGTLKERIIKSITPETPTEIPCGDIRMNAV
Dopamine D2 receptor, sequence (P61169 whole entry): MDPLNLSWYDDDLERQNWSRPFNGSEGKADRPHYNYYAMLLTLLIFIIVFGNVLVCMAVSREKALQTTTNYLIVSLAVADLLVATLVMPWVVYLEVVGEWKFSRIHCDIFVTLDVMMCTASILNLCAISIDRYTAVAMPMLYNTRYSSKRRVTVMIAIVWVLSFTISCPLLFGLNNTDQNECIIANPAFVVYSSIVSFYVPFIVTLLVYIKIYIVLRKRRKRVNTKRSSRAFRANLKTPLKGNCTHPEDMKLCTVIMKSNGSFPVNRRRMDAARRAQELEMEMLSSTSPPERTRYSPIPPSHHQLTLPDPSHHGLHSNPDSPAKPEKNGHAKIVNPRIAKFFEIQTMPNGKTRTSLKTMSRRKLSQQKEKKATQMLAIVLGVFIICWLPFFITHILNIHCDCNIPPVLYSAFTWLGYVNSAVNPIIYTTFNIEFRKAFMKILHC

The term pKi denotes −log10 of the Ki, conventionally taken in molar units. Low values mean a large Ki, high ones a small Ki. Regarding `O=c1ccc2cc(OCCCN3CCN(c4cccc5sccc45)CC3)cc(F)c2[nH]1` [Example 118], the figures for the pKi (at Dopamine D2 receptor; in assay [1]) were 8.46 and 8.47, respectively.
For `O=C1CCc2c(cccc2OCCCN2CCN(c3cccc4sccc34)CC2)N1` [Example 122], the pKi on Dopamine D2 receptor is 8.48; in assay [1] it was 8.54.
As for `Cc1cc(=O)[nH]c2cc(OCCCN3CCN(c4cccc5sccc45)CC3)ccc12` [Example 3, 7-[3-(4-benzo[b]thiophen-4-yl-piperazin-1-yl)propoxy]-4-methyl-1H-quinolin-2-one], the pKi at Dopamine D2 receptor is 9.30; in assay [1], 8.64. Also, the inhibition at 0.3 µM on Serotonin (5-HT) uptake was determined as 84.8%.
For the compound `O=c1[nH]ccc2ccc(OCCCN3CCN(c4cccc5sccc45)CC3)cc12` [Example 35, 7-[3-(4-benzo[b]thiophen-4-yl-piperazin-1-yl)propoxy]-2H-isoquinolin-1-one], the pKi on Dopamine D2 receptor is 8.80.
As for `O=C1CCc2ccc(OCCCCN3CCN(c4cccc5sccc45)CC3)cc2N1` [Example 11, 7-[4-(4-benzo[b]thiophen-4-yl-piperazin-1-yl)butoxy]-3,4-dihydro-1H-quinolin-2-one], the negative-log Ki (pKi) in assay [1] is 8.24.
As to `O=C1CCc2cc(OCCCN3CCN(c4cccc5sccc45)CC3)cc(F)c2N1` [Example 116], the figures for the pKi (at Dopamine D2 receptor; in assay [1]) were 8.35 and 8.38, respectively.
`Cc1cc2ccc(OCCCCN3CCN(c4cccc5sccc45)CC3)cc2[nH]c1=O` [Example 6, 7-[4-(4-benzo[b]thiophen-4-yl-piperazin-1-yl)butoxy]-3-methyl-1H-quinolin-2-one] showed a pKi at Dopamine D2 receptor of 9.10. The inhibition at 0.3 µM at Serotonin (5-HT) uptake is 91.3%.
`O=C1CCc2ccccc2N1CCCCCN1CCN(c2cccc3sccc23)CC1` [Example 22, 1-[5-(4-benzo[b]thiophen-4-yl-piperazin-1-yl)pentyl]-3,4-dihydro-1H-quinolin-2-one hydrochloride] gave a pKi at Dopamine D2 receptor of 8.40.
On Dopamine D2 receptor, `O=C1CCc2cc(CO)c(OCCCN3CCN(c4cccc5sccc45)CC3)cc2N1` [Example 139] showed a negative logarithm of the Ki (pKi) of 9.70.
As to `O=c1c2cc(O)ccc2ccn1CCCCN1CCN(c2cccc3sccc23)CC1` [Example 39, 2-[4-(4-benzo[b]thiophen-4-yl-piperazin-1-yl)butyl]-7-hydroxy-2H-isoquinolin-1-one hydrobromide], on Dopamine D2 receptor, the pKi is 8.92.
For `O=c1ccc2cc(OCCCCN3CCN(c4cccc5sccc45)CC3)cc(F)c2[nH]1` [Example 184], the negative logarithm of the Ki (pKi) on Dopamine D2 receptor is 8.59; in assay [1], 8.37.
The matching figures for `CC(=O)Nc1ccc(OCCCN2CCN(c3cccc4sccc34)CC2)c2c1NC(=O)CC2` [Example 155]: 8.64 and 8.52.
Consider `COc1ccc2ccn(CCCCN3CCN(c4cccc5sccc45)CC3)c(=O)c2c1` [Example 38, 2-[4-(4-benzo[b]thiophen-4-yl-piperazin-1-yl)butyl]-7-methoxy-2H-isoquinolin-1-one hydrochloride], for which the pKi in assay [1] was 8.14.
As for `CN1CCc2ccc(OCCCCN3CCN(c4cccc5sccc45)CC3)cc2C1=O` [Example 32, 7-[4-(4-benzo[b]thiophen-4-yl-piperazin-1-yl)butoxy]-2-methyl-3,4-dihydro-2H-isoquinolin-1-one hydrochloride], the pKi at Dopamine D2 receptor is 8.82.
Take `O=C1CCc2cccc(OCCCCN3CCN(c4cccc5sccc45)CC3)c2N1` [Example 186]: the pKi at Dopamine D2 receptor is 8.64; in assay [1], 8.06.
`O=C1CCc2c(O)ccc(OCCCN3CCN(c4cccc5sccc45)CC3)c2N1` [Example 190]: on Dopamine D2 receptor, the negative-log Ki (pKi) was 9.10.
Compound `O=c1[nH]c2ccccc2cc1OCCN1CCN(c2cccc3sccc23)CC1` [Example 2, 3-[2-(4-benzo[b]thiophen-4-yl-piperazin-1-yl)ethoxy]-1H-quinolin-2-one] gave a pKi in assay [1] of 8.82. For the same compound, the inhibition at 0.3 µM on Serotonin (5-HT) uptake came to 78.8%.
For `CCN1CCc2ccc(OCCCN3CCN(c4cccc5sccc45)CC3)cc2C1=O` [Example 31, 7-[3-(4-benzo[b]thiophen-4-yl-piperazin-1-yl)propoxy]-2-ethyl-3,4-dihydro-2H-isoquinolin-1-one dihydrochloride], the negative-log Ki (pKi) on Dopamine D2 receptor is 8.85.
With `O=C1CCc2ccc(OCCCCN3CCN(c4cccc5sccc45)CC3)cc2N1` [Example 12, 7-[4-(4-benzo[b]thiophen-4-yl-piperazin-1-yl)butoxy]-3,4-dihydro-1H-quinolin-2-one hydrochloride], the negative logarithm of the Ki (pKi) in assay [1] (hydrochloride) is 8.68.
In turn, `O=C1NCCc2ccc(OCCCN3CCN(c4cccc5sccc45)CC3)cc21` [Example 28, 7-[3-(4-benzo[b]thiophen-4-yl-piperazin-1-yl)propoxy]-3,4-dihydro-2H-isoquinolin-1-one] showed a pKi at Dopamine D2 receptor of 8.92.
In assay [1], `Cn1ccc2ccc(OCCCN3CCN(c4cccc5sccc45)CC3)cc2c1=O` [Example 36, 7-[3-(4-benzo[b]thiophen-4-yl-piperazin-1-yl)propoxy]-2-methyl-2H-isoquinolin-1-one hydrochloride] had a pKi of 8.68.
For the compound `Cc1cc(=O)[nH]c2ccc(OCCCCN3CCN(c4cccc5sccc45)CC3)cc12` [Example 185], the results for the negative-log Ki (pKi) (on Dopamine D2 receptor; in assay [1]) were 8.57 and 8.30, respectively.
With `O=C1CCc2ccc(OC/C=C\CN3CCN(c4cccc5sccc45)CC3)cc2N1` [Example 13, 7-[4-(4-benzo[b]thiophen-4-yl-piperazin-1-yl)-(Z)-2-butenyloxy]-3,4-dihydro-1H-quinolin-2-one], the pKi on Dopamine D2 receptor is 8.62. Further, the inhibition at 0.3 µM at Serotonin (5-HT) uptake came out at 77%.
With `O=C1NCCc2cc(OCCCN3CCN(c4cccc5sccc45)CC3)ccc21` [Example 25, 6-[3-(4-benzo[b]thiophen-4-yl-piperazin-1-yl)propoxy]-3,4-dihydro-2H-isoquinolin-1-one], the pKi in assay [1] was 8.34. The inhibition at 0.3 µM at Serotonin (5-HT) uptake was found to be 91.9%.
As to `Cc1cccc2cc(OCCCN3CCN(c4cccc5sccc45)CC3)c(=O)[nH]c12` [Example 117], the negative logarithm of the Ki (pKi) on Dopamine D2 receptor is 8.33.
With `O=c1ccc2cccc(OCCCCN3CCN(c4cccc5sccc45)CC3)c2[nH]1` [Example 188], the results for the pKi (at Dopamine D2 receptor; in assay [1]) were 8.80 and 8.20, respectively.

Values taken from patent US9206167B2, “Piperazine-substituted benzothiophenes for treatment of mental disorders” (Otsuka Pharmaceutical Co., Ltd., priority 2005, dated 2015).
